Like-named read-outs stand apart in the source and are kept apart here. Blank lines part the entries; values can stand above or below the compound they belong to.
Columns and labels:
[1] = test system: H1975 cells; experiment: MTT assay for cell proliferation and cytotoxicity, H1975; format: cell-based, human
How it was run: (§1)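 Growth inhibition is measured by MTT reduction (A490) following 48 h treatment across 0–50 μM compound, with 0.1% DMSO as control. Taxol-resistant sublines are cultured in medium carrying 100 nm/L paclitaxel.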

[2] = test system: H1975OR cells; experiment: MTT assay, osimertinib-resistant H1975OR; format: cell-based; settings: Homo sapiens
Description: (§2) The human cancer cells (H1650, H1975, KYSE70, KYSE410 and KYSE450) were purchased from the Type Culture Collection of the Chinese Academy of Sciences (Shanghai, China). The human immortalized normal esophageal epithelial cell line SHEE was donated by Dr. Enmin Li from the Laboratory of Tumor Pathology (Shantou University Medical College, Shantou, Guangdong, China). Drug-resistant cells (H1650TR, H1975OR, KYSE70TR, KYSE410TR and KYSE450TR) were induced by China-US (Henan) Hormel Cancer Institute. The cellswere cultured in RPMI-1640 complete growth medium containing 100 U/mL penicillin-streptomycin and 10% FBS. Based on the above medium formula, 100 nm/L paclitaxel was added in taxol-resistant cells, 100 nm/L gefitinib was added in gefitinib-resistant cells. The cells were incubated at 37 °C in an atmosphere containing 5% of CO2. The compounds were dissolved in DMSO to make a 50 mM stock solution and were diluted to the concentration of working solutions with complete growth medium before administration.
(§3) Cells were seeded in 96-well plates with 2,200–2,500 cells/well in100 μL. One day after seeding, test compounds with the concentration between 0 and 50 μM were added with 0.1% DMSO as control. Five multiple wells for each concentration. […] The absorbance at 490 nm was measured using a microplate reader (Thermo).

[3] = test system: KYSE450TR cells; experiment: Cell cycle analysis by flow cytometry, KYSE450TR; format: cell-based, human; settings: 24 h, icotinib at 8 μM, 3l at 8 μM
Procedure: (§4) KYSE450/KYSE450TR cells were plated in 6-well plates with a density of 1×10^5 cells/well and cultured overnight. […] Trypsinization treatment and the cells were collected by centrifugation. The cell pellet was re-suspended in 70% ethanol at −20°C for at least 3 h. The cells were washed with PBS and were re-suspended in 250 μL of 0.6% tricine with Renease A for 1 h, then stained in PI (final concentration 1.8 μg/ml, Biolegend cat: 640945) for 15 min in dark. Cells were retransferred to the BD FACSCalibur™ Flow Cytometer. All analyses were performed with FlowJo software v105.3.6.

[4] = test system: H1650 cells; experiment: MTT assay for cell proliferation and cytotoxicity, H1650; format: cell-based; settings: Homo sapiens, NCI-H1650, 48 h, H1650, n = 5
How it was run: as §1

[5] = test system: KYSE70 cells; experiment: MTT assay, KYSE70; format: cell-based, human; settings: Homo sapiens, KYSE-70; MTT, 48 h, KYSE70, n = 5
How it was run: as §1

[6] = test system: KYSE70TR cells; experiment: MTT assay, taxol-resistant KYSE70TR; format: cell-based, human; settings: Homo sapiens; MTT, 48 h, taxol-resistant KYSE70TR, value in parentheses; read-out: IC50 48 h KYSE70TR (data in parentheses) (converted)
Description: as §2, §3

[7] = test system: KYSE450TR cells; experiment: MTT assay, taxol-resistant KYSE450TR; format: cell-based, human; settings: Homo sapiens; MTT, 48 h, taxol-resistant KYSE450TR, value in parentheses; read-out: IC50 48 h KYSE450TR (data in parentheses) (converted)
Description: as §2, §3

[8] = test system: KYSE450 cells; experiment: Cell cycle analysis by flow cytometry, KYSE450; format: cell-based, human; settings: KYSE450, 24 h; icotinib at 2 μM, 3l at 8 μM
Procedure: as §4

[9] = test system: KYSE410TR cells; experiment: MTT assay, taxol-resistant KYSE410TR; format: cell-based, human; settings: Homo sapiens; MTT, 48 h, taxol-resistant KYSE410TR, value in parentheses; read-out: IC50 48 h KYSE410TR (data in parentheses) (converted)
Description: as §2, §3

[10] = test system: SHEE cells; experiment: MTT assay, normal esophageal epithelial cell line SHEE; format: cell-based; settings: Homo sapiens, 48 h, n = 5
How it was run: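 MTT read-out at 490 nm after 48 h treatment with 0–50 μM compound, applied one day after seeding 2,200–2,500 cells/well; five wells per concentration, 0.1% DMSO as control. Culture in RPMI-1640/10% FBS, with 100 nm/L paclitaxel kept in the taxol-resistant lines.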

[11] = test system: KYSE450 cells; experiment: MTT assay, KYSE450; format: cell-based, human; settings: Homo sapiens, KYSE-450; MTT, 48 h, KYSE450, n = 5; read-out: IC50 48 h KYSE450
How it was run: as §1

[12] = test system: KYSE450 cells; experiment: Annexin V/PI flow cytometry for apoptosis, KYSE450; format: cell-based, human; settings: 48 h
Procedure: (§5) Cell-apoptosis analysis was carried out by flow cytometry using the Annexin V/PI apoptosis methods. […] Cells were harvested and incubated with 250 μL of 1 × Annexin V binding buffer containing 5 μL PI and 5 μL FITC Annexin V (final concentration 1.8 μg/ml, Biolegend (cat: 640945) for 15 min at room temperature in dark. 200 µL of 1 × binding buffer was added for flow cytometry analysis (BD FACSCalibur™ Flow Cytometer).

[13] = target: T1, EGFR (Homo sapiens, UniProt P00533); experiment: EGFR kinase assay (ELISA); format: biochemical; settings: 25°C
T1 construct: purchased Active MOTIF
T1 sequence (P00533 25-1210): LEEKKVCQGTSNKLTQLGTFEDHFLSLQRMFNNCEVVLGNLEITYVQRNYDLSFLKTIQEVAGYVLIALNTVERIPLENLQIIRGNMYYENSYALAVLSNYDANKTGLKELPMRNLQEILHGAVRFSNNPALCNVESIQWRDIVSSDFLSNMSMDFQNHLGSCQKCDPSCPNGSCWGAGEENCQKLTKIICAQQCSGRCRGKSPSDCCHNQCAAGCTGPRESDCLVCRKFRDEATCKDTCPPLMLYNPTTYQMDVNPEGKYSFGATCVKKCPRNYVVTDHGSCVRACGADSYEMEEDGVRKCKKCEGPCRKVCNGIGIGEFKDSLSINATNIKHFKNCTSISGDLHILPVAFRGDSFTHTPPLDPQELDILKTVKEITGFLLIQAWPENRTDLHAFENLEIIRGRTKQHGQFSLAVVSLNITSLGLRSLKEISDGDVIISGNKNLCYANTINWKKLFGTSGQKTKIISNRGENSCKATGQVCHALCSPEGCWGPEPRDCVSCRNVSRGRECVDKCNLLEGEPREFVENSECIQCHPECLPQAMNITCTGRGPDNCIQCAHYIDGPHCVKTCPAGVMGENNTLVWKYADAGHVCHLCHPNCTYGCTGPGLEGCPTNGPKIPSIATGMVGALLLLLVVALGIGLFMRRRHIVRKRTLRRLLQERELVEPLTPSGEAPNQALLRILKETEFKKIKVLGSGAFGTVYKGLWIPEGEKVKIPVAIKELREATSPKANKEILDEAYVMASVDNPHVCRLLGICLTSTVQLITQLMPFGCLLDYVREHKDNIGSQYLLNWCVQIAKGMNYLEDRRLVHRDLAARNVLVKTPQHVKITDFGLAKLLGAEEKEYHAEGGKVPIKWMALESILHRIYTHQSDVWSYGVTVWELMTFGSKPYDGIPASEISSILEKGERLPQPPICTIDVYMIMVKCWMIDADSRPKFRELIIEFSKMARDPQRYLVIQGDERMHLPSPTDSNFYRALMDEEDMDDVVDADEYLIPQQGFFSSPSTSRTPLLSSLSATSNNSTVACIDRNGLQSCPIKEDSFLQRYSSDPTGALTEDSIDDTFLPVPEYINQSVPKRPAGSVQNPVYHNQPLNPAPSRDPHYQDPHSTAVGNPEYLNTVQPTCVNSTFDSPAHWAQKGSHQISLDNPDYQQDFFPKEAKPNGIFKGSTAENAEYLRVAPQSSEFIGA
Procedure: Kinase inhibitory activities of the compounds were evaluated using the Protein Tyrosine Kinase Assay Kit (SignalChem (British Columbia, Canada)). The kinase enzyme of EGFR was purchased from Active MOTIF. The ELISA experiments were carried out according the instructions of the kit. Active kinases were incubated with indicated compounds in 1 × reaction buffer containing 20 μM substrate at 25°C for 1 h and 2 h, respectively. The absorbance was read with a multimode plate reader (PerkinElmer, United States) at 450 nm.

[14] = target: T2, EGFR wild protein (H672-A1210) (Homo sapiens, UniProt P00533); experiment: EGFR protein affinity determined with SPR; format: binding; settings: immobilized wild-type EGFR
T2 construct: purchased Active MOTIF 31165
T2 sequence (P00533 672-1210): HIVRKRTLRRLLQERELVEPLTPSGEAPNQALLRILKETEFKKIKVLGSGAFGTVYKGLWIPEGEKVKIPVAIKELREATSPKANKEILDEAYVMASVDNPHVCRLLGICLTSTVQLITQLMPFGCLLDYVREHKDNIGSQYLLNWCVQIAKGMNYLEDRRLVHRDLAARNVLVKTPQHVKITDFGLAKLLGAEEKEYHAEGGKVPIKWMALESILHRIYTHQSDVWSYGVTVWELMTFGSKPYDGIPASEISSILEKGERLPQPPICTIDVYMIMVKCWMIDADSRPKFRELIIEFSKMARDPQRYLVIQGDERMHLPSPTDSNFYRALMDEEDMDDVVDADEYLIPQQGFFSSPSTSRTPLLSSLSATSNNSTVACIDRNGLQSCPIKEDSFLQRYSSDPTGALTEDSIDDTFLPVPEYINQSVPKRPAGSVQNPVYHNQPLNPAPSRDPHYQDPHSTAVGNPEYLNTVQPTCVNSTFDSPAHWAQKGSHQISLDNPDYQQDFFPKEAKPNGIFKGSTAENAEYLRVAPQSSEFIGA
Procedure: Firstly, EGFR protein (protein concentration : 0.468 μg/μL, Active MOTIF, cat: 31165, lot: 28215004) was covalently immobilized onto a CM5 sensor chip at densities of 2000 response units. […] During the drug-protein interaction, the change of the refractive index was measured in real-time which would allow the plotting of the results of interaction as response units versus time. The interaction results were analyzed under a BIA evaluation 3.0 software.

[15] = test system: H1650TR cells; experiment: MTT assay, taxol-resistant H1650TR; format: cell-based; settings: Homo sapiens, NCI-H1650, 48 h, value in parentheses in H1650 column
Description: as §2
Cells were seeded in 96-well plates with 2,200–2,500 cells/well in100 μL. One day after seeding, test compounds with the concentration between 0 and 50 μM were added with 0.1% DMSO as control. Five multiple wells for each concentration. After 48 h, MTT was added and incubated in the plate for 1–4 h in the incubator. The absorbance at 490 nm was measured using a microplate reader (Thermo).

[16] = test system: KYSE450TR cells; experiment: Annexin V/PI flow cytometry for apoptosis, KYSE450TR; format: cell-based, human; settings: 48 h
Procedure: as §5

[17] = test system: KYSE410 cells; experiment: MTT assay, KYSE410; format: cell-based, human; settings: Homo sapiens, KYSE-410; MTT, 48 h, KYSE410, n = 5; read-out: IC50 48 h KYSE410
How it was run: as §1

[18] = test system: KYSE450 cell-derived xenograft; experiment: In vivo cell-derived xenograft (CDX) mouse model; set-up: species or system nu/nu nude mice
Procedure: Mice were housed under specific pathogen-free conditions. All animal experiments were approved by the Bioethics Committee of Zhengzhou University and followed the guidelines set by the Institutional Animal Care and Use Committee (CUHCI2019002, CUHCI2021001, and CUHCI2021005). To generate the cell-derived xenograft (CDX) mouse model, nu/nu nude mice (Vital River Labs., Beijing, China) were subcutaneously injected with 5 × 10^6 cells (KYSE450). […] Tumor volume was calculated as follows: length × width × height × 0.5. Tumor size and mice weight were measured every 2–3 days. Compounds were administered for 15 days. The tumors were extracted for weighting, immunohistochemistry and immunofluorescence studies.
Frozen sections were washed three times with PBS and incubated overnight at 4°C with Ki-67 antibody. The next day, sections were washed three times and incubated with secondary antibody in PBS. After several washes, slides were counterstained with DAPI (Solarbio). The sections were mounted on microscope and imaged using fluorescent microscopy (Nikon, Tokyo, Japan). Image-Pro Plus 6.0 was used to analyze the fluorescence intensity.
Histological sections were dewaxed, antigens were repaired and sealed with serum in sequence. Next, histological sections were incubated overnight with diluted primary antibodies (1 : 500 dilution), and the control specimens were treated with PBS. The sections were washed 3 times with PBS. Secondary antibody was added and the system was then placed at 37 °C for half an hour. The systems were washed 3 times with PBS. Color developing agent was added. After washing with water, the system was soaked in hematoxylin for 0.5 min for dyeing. The re-dyed slides were washed with water, and then dehydrated. Neutral gums were dropped on the side of the tissue. The slices were then covered with cover glass, sealed and placed in a ventilator for drying. Immunohistochemical staining analysis was then carried out with Image-Pro Plus 6.0.

[19] = nude mice, 50 mg/kg i.p. every day, 15 days, vs control group and icotinib group

IC50 ([2]; H1975OR, 24 h, resistance-inducing drug (osimertinib), read-out: 24 h IC50): 13.8 ± 2.98 µM
IC50 ([2]; H1975OR, 48 h, resistance-inducing drug (osimertinib), read-out: 48 h IC50): 5.97 ± 0.289 µM
Compound: C=CC(=O)Nc1cc(Nc2nccc(-c3cn(C)c4ccccc34)n2)c(OC)cc1N(C)CCN(C)C [osimertinib, reference compound]
IC50 ([1]; Homo sapiens, NCI-H1975, 24 h, H1975, MTT, 24 h, resistance-inducing drug (osimertinib), read-out: 24 h IC50): 0.585 ± 0.0261 µM
IC50 ([1]; Homo sapiens, NCI-H1975, 48 h, H1975, MTT, 48 h, resistance-inducing drug (osimertinib), read-out: 48 h IC50): 0.102 ± 0.0121 µM

IC50 ([2]; NCI-H1975, 48 h, osimertinib-resistant H1975OR, value in parentheses in H1975 column, read-out: IC50 48 h H1975OR (data in parentheses) (converted)): > 50 µM
IC50 ([13]; incubation 1 h, read-out: IC50 EGFR 1 h): 0.00138 µM
IC50 ([13]; incubation 2 h, read-out: IC50 EGFR 2 h): 0.038 µM
Rmax(RU) [14]: 15.74 RU
Kd ([14]; 25°C): 36.1 µM
IC50 [15]: > 50 µM
Compound: C#Cc1cccc(Nc2ncnc3cc4c(cc23)OCCOCCOCCO4)c1 [icotinib, reference compound]
cell cycle phase in which cells were arrested [3]: G1 phase
IC50 [4]: > 50 µM
IC50 [5]: > 50 µM
IC50 ([1]; Homo sapiens, NCI-H1975, 48 h, MTT, 48 h, H1975, n = 5, read-out: IC50 48 h H1975): > 50 µM
IC50 ([1]; MTT, 48 h, H1975, n = 5, read-out: IC50 48 h H1975): 48.3 ± 2.13 µM
IC50 [6]: > 50 µM
IC50 [7]: > 50 µM
cell cycle phase in which cells were arrested [8]: G1 phase
IC50 [9]: > 50 µM
IC50 [10]: 19.2 ± 1.29 µM
IC50 [11]: 30.4 ± 1.96 µM
proportion of apoptotic cells ([12]; KYSE450, 2 μM): 7.84%
proportion of apoptotic cells ([12]; KYSE450, 4 μM): 12.25%
proportion of apoptotic cells ([16]; 5 μM): 8.51%
proportion of apoptotic cells ([16]; 10 μM): 10.43%
IC50 [17]: > 50 µM

Compound: C#Cc1cccc(Nc2ncnc3cc(OCCOC)c(OCCOC)cc23)c1 [erlotinib, reference compound]
expression of proliferation marker Ki-67 in tumor ([18]; 50 mg/kg i.p., immunofluorescence): decreased significantly
expression of P-ERK (Tyr202/204) in tumor ([18]; 50 mg/kg i.p., immunohistochemistry): decreased significantly
ESCC tumor volume [18, 19]: markedly reduced
average tumor weight [18, 19]: markedly reduced

Source: PMC9709406 (Frontiers in Pharmacology, 2022)
